Laboratory results taken from patent US9474790B2, “Stable, protracted GLP-1/glucagon receptor co-agonists for medical use” (Novo Nordisk A/S, priority 2013, dated 2016).
Numbered stars: 1 amine (or outer) side, 2 acyl side, 3 side chain; on linkers, the order of the positions; unused ones are H or OH. Square brackets hold non-standard residues; d marks the D form. Side chains are listed from the residue outwards. Peptide text beside a SMILES is read from it. * marks the point of attachment. C18 diacid = O=C(O)CCCCCCCCCCCCCCCCC(=O)*; γGlu = O=C(O)[C@H](CCC(=O)[*:2])N[*:1]; AEEA = NCCOCCOCC(=O)O; Aib = CC(C)(N)C(=O)O

Biological target: T1, human glucagon receptor (Homo sapiens, UniProt P47871)
T1 construct: expressed in transfected cells; host or cells: BHK cells (parent BHK570, CRE luciferase clone BHK/KZ10-20-48), clone pLJ6'-4-25
Assay: Glucagon receptor binding, 125I-glucagon displacement SPA on isolated membranes
Details: displacement of 125I-glucagon from membranes; read-out: IC50 GlucR
Outline: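 Membranes from BHK cells stably expressing human glucagon receptor incubated 2 h at 25 °C with [125I]-glucagon (25 μl of 480 pM solution) and serial compound dilutions in WGA SPA format, pH 7.4 buffer with 0.1% ovalbumin. Albumin at max 0.001% or 0.2% final. IC50 from non-linear regression.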

T1 sequence (P47871 26-477): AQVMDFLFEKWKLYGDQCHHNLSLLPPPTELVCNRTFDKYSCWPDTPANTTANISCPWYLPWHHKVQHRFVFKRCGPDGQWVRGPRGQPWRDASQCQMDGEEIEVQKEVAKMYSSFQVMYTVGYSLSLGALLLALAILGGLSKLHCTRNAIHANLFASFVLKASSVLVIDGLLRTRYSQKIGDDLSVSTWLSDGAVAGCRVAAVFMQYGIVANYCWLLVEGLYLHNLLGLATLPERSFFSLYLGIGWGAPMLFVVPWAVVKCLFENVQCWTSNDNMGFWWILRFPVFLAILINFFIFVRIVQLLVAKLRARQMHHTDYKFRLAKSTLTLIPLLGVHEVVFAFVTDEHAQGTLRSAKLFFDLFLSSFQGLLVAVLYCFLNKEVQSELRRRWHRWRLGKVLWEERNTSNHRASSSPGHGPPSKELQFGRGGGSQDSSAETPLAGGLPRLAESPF

Question: How did the IC50 turn out when `CC(C)C[C@H](NC(=O)[C@H](CC(C)C)NC(=O)[C@H](Cc1c[nH]c2ccccc12)NC(=O)[C@H](CCC(N)=O)NC(=O)[C@@H](NC(=O)[C@H](Cc1ccccc1)NC(=O)[C@H](CCC(=O)O)NC(=O)[C@H](CCC(N)=O)NC(=O)[C@H](C)NC(=O)[C@H](C)NC(=O)[C@H](CCCCN)NC(=O)[C@H](CO)NC(=O)[C@H](CC(=O)O)NC(=O)[C@H](CC(C)C)NC(=O)[C@H](Cc1ccc(O)cc1)NC(=O)[C@H](CCCCN)NC(=O)[C@H](CO)NC(=O)[C@H](CC(C)C)NC(=O)[C@H](CC(=O)O)NC(=O)[C@H](CO)NC(=O)[C@@H](NC(=O)[C@H](Cc1ccccc1)NC(=O)[C@@H](NC(=O)CNC(=O)[C@H](CCC(N)=O)NC(=O)C(C)(C)NC(=O)[C@@H](N)Cc1c[nH]cn1)[C@@H](C)O)[C@@H](C)O)C(C)C)C(=O)N[C@@H](CC(N)=O)C(=O)N[C@@H](CCCCNC(=O)CC[C@H](NC(=O)CC[C@H](NC(=O)COCCOCCNC(=O)COCCOCCNC(=O)CC[C@H](NC(=O)CCCCCCCCCCCCCCCCC(=O)O)C(=O)O)C(=O)O)C(=O)O)C(N)=O` [Example 8, N^ε29-[(4S)-4-carboxy-4-[[(4S)-4-carboxy-4-[[2-[2-[2-[[2-[2-[2-[[(4S)-4-carboxy-4-(17-carboxyheptadecanoylamino)butanoyl]amino]ethoxy]ethoxy]acetyl]amino]ethoxy]ethoxy]acetyl]amino]butanoyl]amino]butanoyl]-[Aib2,Leu10,Lys17,Ala18,Glu21,Leu27,Lys29]-Glucagon amide] (H-H[Aib]QGTFTSDLSKYLDSKAAQEFVQWLLNK([γGlu-γGlu-AEEA-AEEA-γGlu-C18 diacid])-NH2; N-terminus assumed) was run?
Answer: 6.7 nM

Question: With `CC(C)C[C@H](NC(=O)[C@H](Cc1ccc(O)cc1)NC(=O)[C@H](CCCCN)NC(=O)[C@H](CO)NC(=O)[C@H](CC(C)C)NC(=O)[C@H](CC(=O)O)NC(=O)[C@H](CO)NC(=O)[C@@H](NC(=O)[C@H](Cc1ccccc1)NC(=O)[C@@H](NC(=O)CNC(=O)[C@H](CCC(N)=O)NC(=O)C(C)(C)NC(=O)[C@@H](N)Cc1c[nH]cn1)[C@@H](C)O)[C@@H](C)O)C(=O)N[C@@H](CCC(=O)O)C(=O)N[C@@H](CO)C(=O)N[C@@H](CCCNC(=N)N)C(=O)N[C@@H](CCCNC(=N)N)C(=O)N[C@@H](C)C(=O)N[C@@H](CCCNC(=N)N)C(=O)N[C@@H](CCC(=O)O)C(=O)N[C@@H](Cc1ccccc1)C(=O)N[C@H](C(=O)N[C@@H](CCC(N)=O)C(=O)N[C@@H](Cc1c[nH]c2ccccc12)C(=O)N[C@@H](CC(C)C)C(=O)N[C@@H](CC(C)C)C(=O)N[C@@H](CCCCNC(=O)COCCOCCNC(=O)COCCOCCNC(=O)CC[C@H](NC(=O)CC[C@H](NC(=O)CC[C@H](NC(=O)CCCCCCCCCCCCCCCCC(=O)O)C(=O)O)C(=O)O)C(=O)O)C(=O)N[C@H](C(N)=O)[C@@H](C)O)C(C)C` [Example 42, N^ε28-[2-[2-[2-[[2-[2-[2-[[(4S)-4-carboxy-4-[[(4S)-4-carboxy-4-[[(4S)-4-carboxy-4-(17-carboxyheptadecanoylamino)butanoyl]amino]butanoyl]amino]butanoyl]amino]ethoxy]ethoxy]acetyl]amino]ethoxy]ethoxy]acetyl]-[Aib2,Leu10,Glu15,Arg20,Glu21,Leu27,Lys28]-Glucagon amide] (H-H[Aib]QGTFTSDLSKYLESRRAREFVQWLLK([AEEA-AEEA-γGlu-γGlu-γGlu-C18 diacid])T-NH2; N-terminus assumed) as the molecule, how does the IC50 read?
Answer: 38.2 nM

Question: With `CC(C)C[C@H](NC(=O)[C@H](Cc1ccc(O)cc1)NC(=O)[C@H](CCCCN)NC(=O)[C@H](CO)NC(=O)[C@H](CC(C)C)NC(=O)[C@H](CC(=O)O)NC(=O)[C@H](CO)NC(=O)[C@@H](NC(=O)[C@H](Cc1ccccc1)NC(=O)[C@@H](NC(=O)CNC(=O)[C@H](CCC(N)=O)NC(=O)C(C)(C)NC(=O)[C@@H](N)Cc1c[nH]cn1)[C@@H](C)O)[C@@H](C)O)C(=O)N[C@@H](CCC(=O)O)C(=O)N[C@@H](CO)C(=O)N[C@@H](CCCNC(=N)N)C(=O)N[C@@H](CCCNC(=N)N)C(=O)N[C@@H](C)C(=O)N[C@@H](CCCNC(=N)N)C(=O)N[C@@H](CCC(=O)O)C(=O)N[C@@H](Cc1ccccc1)C(=O)N[C@H](C(=O)N[C@@H](CCC(N)=O)C(=O)N[C@@H](Cc1c[nH]c2ccccc12)C(=O)N[C@@H](CC(C)C)C(=O)N[C@@H](CC(C)C)C(=O)N[C@@H](CCCCNC(=O)CC[C@H](NC(=O)CC[C@H](NC(=O)[C@H](CO)NC(=O)[C@H](CCC(=O)O)NC(=O)[C@H](CO)NC(=O)CC[C@H](NC(=O)CC[C@H](NC(=O)CCCCCCCCCCCCCCCCC(=O)O)C(=O)O)C(=O)O)C(=O)O)C(=O)O)C(=O)N[C@H](C(N)=O)[C@@H](C)O)C(C)C` [Example 67, N^ε28-[(4S)-4-carboxy-4-[[(4S)-4-carboxy-4-[[(2S)-2-[[(2S)-4-carboxy-2-[[(2S)-2-[[(4S)-4-carboxy-4-[[(4S)-4-carboxy-4-(17-carboxyheptadecanoylamino)butanoyl]amino]butanoyl]amino]-3-hydroxypropanoyl]amino]butanoyl]amino]-3-hydroxypropanoyl]amino]butanoyl]amino]butanoyl]-[Aib2,Leu10,Glu15,Arg20,Glu21,Leu27,Lys28]-Glucagon amide] (H-H[Aib]QGTFTSDLSKYLESRRAREFVQWLLK([γGlu-γGlu-Ser-Glu-Ser-γGlu-γGlu-C18 diacid])T-NH2; N-terminus assumed) as the molecule, how does the IC50 read?
Answer: 1.5 nM

Question: How did the IC50 turn out when `CC(C)C[C@H](NC(=O)[C@H](Cc1ccc(O)cc1)NC(=O)[C@H](CCCCN)NC(=O)[C@H](CO)NC(=O)[C@H](CC(C)C)NC(=O)[C@H](CC(=O)O)NC(=O)[C@H](CO)NC(=O)[C@@H](NC(=O)[C@H](Cc1ccccc1)NC(=O)[C@@H](NC(=O)CNC(=O)[C@H](Cc1c[nH]cn1)NC(=O)C(C)(C)NC(=O)[C@@H](N)Cc1c[nH]cn1)[C@@H](C)O)[C@@H](C)O)C(=O)N[C@@H](CCC(=O)O)C(=O)N[C@@H](CO)C(=O)N[C@@H](CCCCN)C(=O)N[C@@H](CCCNC(=N)N)C(=O)N[C@@H](C)C(=O)N[C@@H](CCCNC(=N)N)C(=O)N[C@@H](CCC(=O)O)C(=O)N[C@@H](Cc1ccccc1)C(=O)N[C@H](C(=O)N[C@@H](CCC(N)=O)C(=O)N[C@@H](Cc1c[nH]c2ccccc12)C(=O)N[C@@H](CC(C)C)C(=O)N[C@@H](CC(C)C)C(=O)N[C@@H](CCCCNC(=O)CC[C@H](NC(=O)CC[C@H](NC(=O)CC[C@H](NC(=O)CCCCCCCCCCCCCCCCC(=O)O)C(=O)O)C(=O)O)C(=O)O)C(=O)N[C@H](C(N)=O)[C@@H](C)O)C(C)C` [Example 34, N^ε28-[(4S)-4-carboxy-4-[[(4S)-4-carboxy-4-[[(4S)-4-carboxy-4-(17-carboxyheptadecanoylamino)butanoyl]amino]butanoyl]amino]butanoyl]-[Aib2,His3,Leu10,Glu15,Lys17,Arg20,Glu21,Leu27,Lys28]-Glucagon amide] (H-H[Aib]HGTFTSDLSKYLESKRAREFVQWLLK([γGlu-γGlu-γGlu-C18 diacid])T-NH2; N-terminus assumed) was run?
Answer: 0.2 nM

Question: How did the IC50 turn out when `CC(C)C[C@H](NC(=O)[C@H](Cc1ccc(O)cc1)NC(=O)[C@H](CCCNC(=N)N)NC(=O)[C@H](CO)NC(=O)[C@H](CC(C)C)NC(=O)[C@H](CC(=O)O)NC(=O)[C@H](CO)NC(=O)[C@@H](NC(=O)[C@H](Cc1ccccc1)NC(=O)[C@@H](NC(=O)CNC(=O)[C@H](CCC(N)=O)NC(=O)C(C)(C)NC(=O)[C@@H](N)Cc1c[nH]cn1)[C@@H](C)O)[C@@H](C)O)C(=O)N[C@@H](CC(=O)O)C(=O)N[C@@H](C)C(=O)N[C@@H](CCCNC(=N)N)C(=O)N[C@@H](CCCNC(=N)N)C(=O)N[C@@H](C)C(=O)N[C@@H](CCCNC(=N)N)C(=O)N[C@@H](CC(=O)O)C(=O)N[C@@H](Cc1ccccc1)C(=O)N[C@H](C(=O)N[C@@H](CCC(N)=O)C(=O)N[C@@H](Cc1c[nH]c2ccccc12)C(=O)N[C@@H](CC(C)C)C(=O)N[C@@H](CC(C)C)C(=O)N[C@@H](CCCCNC(=O)CC[C@H](NC(=O)CC[C@H](NC(=O)CC[C@H](NC(=O)CCCCCCCCCCCCCCCCC(=O)O)C(=O)O)C(=O)O)C(=O)O)C(=O)N[C@H](C(N)=O)[C@@H](C)O)C(C)C` [Example 62, N^ε28-[(4S)-4-carboxy-4-[[(4S)-4-carboxy-4-[[(4S)-4-carboxy-4-(17-carboxyheptadecanoylamino)butanoyl]amino]butanoyl]amino]butanoyl]-[Aib2,Leu10,Arg12,Ala16,Arg20,Leu27,Lys28]-Glucagon amide] (H-H[Aib]QGTFTSDLSRYLDARRARDFVQWLLK([γGlu-γGlu-γGlu-C18 diacid])T-NH2; N-terminus assumed) was run?
Answer: 3.9 nM

Question: With `CC(C)C[C@H](NC(=O)[C@H](Cc1ccc(O)cc1)NC(=O)[C@H](CCCCN)NC(=O)[C@H](CO)NC(=O)[C@H](CC(C)C)NC(=O)[C@H](CC(=O)O)NC(=O)[C@H](CO)NC(=O)[C@@H](NC(=O)[C@H](Cc1ccccc1)NC(=O)[C@@H](NC(=O)CNC(=O)[C@H](CCC(N)=O)NC(=O)C(C)(C)NC(=O)[C@@H](N)Cc1c[nH]cn1)[C@@H](C)O)[C@@H](C)O)C(=O)N[C@@H](CC(=O)O)C(=O)N[C@@H](C)C(=O)N[C@@H](CCCNC(=N)N)C(=O)N[C@@H](CCCNC(=N)N)C(=O)N[C@@H](C)C(=O)N[C@@H](CCCNC(=N)N)C(=O)N[C@@H](CCC(=O)O)C(=O)N[C@@H](Cc1ccccc1)C(=O)N[C@H](C(=O)N[C@@H](CCC(N)=O)C(=O)N[C@@H](Cc1c[nH]c2ccccc12)C(=O)N[C@@H](CC(C)C)C(=O)N[C@@H](CC(C)C)C(=O)N[C@@H](CCCCNC(=O)CC[C@H](NC(=O)CC[C@H](NC(=O)COCCOCCNC(=O)COCCOCCNC(=O)CC[C@H](NC(=O)CCCCCCCCCCCCCCCCC(=O)O)C(=O)O)C(=O)O)C(=O)O)C(=O)N[C@H](C(N)=O)[C@@H](C)O)C(C)C` [Example 43, N^ε28-[(4S)-4-carboxy-4-[[(4S)-4-carboxy-4-[[2-[2-[2-[[2-[2-[2-[[(4S)-4-carboxy-4-(17-carboxyheptadecanoylamino)butanoyl]amino]ethoxy]ethoxy]acetyl]amino]ethoxy]ethoxy]acetyl]amino]butanoyl]amino]butanoyl]-[Aib2,Leu10,Ala16,Arg20,Glu21,Leu27,Lys28]-Glucagon amide] (H-H[Aib]QGTFTSDLSKYLDARRAREFVQWLLK([γGlu-γGlu-AEEA-AEEA-γGlu-C18 diacid])T-NH2; N-terminus assumed) as the molecule, how does the IC50 read?
Answer: 5.6 nM
